Where “and” joins values, the source holds several entries; their conditions need not be identical. Equal values may be shown once. Read-outs that look alike come from different tables or passages of the source.
Tests used:
[1] = system: Vpr-induced G2/M arrest in Vpr transfected HeLa cells; assay: Cell-based G2 arrest inhibition assay using […]; parameters: species or system human; settings: 10 µM, 44 h; for G2 arrest recover (CELAVIEW) recover rate vs DMSO(%): added 4 h post-transfection
Flag-Vpr in HeLa cells [2] = assay: Expression level of Vpr assessed by Western blotting analysis; format: cell-based, HIV-1; settings: 10 μM, 44 h post-treatment
[3] = Cell-based cytotoxicity analysis, WST-1 assay (MDM cell); settings: human
Flag-Vpr in HeLa cells [4] = assay: Localization of Vpr visualized by confocal microscopy; format: cell-based, HIV-1; settings: 10 μM, 44 h post-treatment
GST-tagged Vpr protein = molecular target: T1, GST-tagged Vpr protein (Human immunodeficiency virus type 1 group M subtype B, UniProt P12520); assay: Surface plasmon resonance (SPR) binding analysis; parameters: species or system HIV-1; settings: for direct binding to Vpr (SPR): 50 μM compound, GST-Vpr on sensor chip, result in words; for Vpr Binding Kd: SPR (Biacore), GST-Vpr, 3.13 to 100 µM, two independent experiments
T1 construct: made in house; host or cells: E. coli
T1 sequence (P12520 whole entry): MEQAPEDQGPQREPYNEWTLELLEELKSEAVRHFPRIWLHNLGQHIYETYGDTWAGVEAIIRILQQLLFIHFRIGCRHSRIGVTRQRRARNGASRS

[5] = system: Vpr-induced G2/M arrest in Vpr transfected HeLa cells; assay: Analysis of the cell cycle using flow cytometry; format: cell-based, human; settings: for recovery of the G2-arrest mediated by Vpr (flow cytometry): 10 μM, Vpr-expressing HeLa cells, result in words; for G2 arrest recover (Flow cytometry) Vpr G1% / G2 arrest recover (Flow cytometry) Vpr G2% / G2 arrest recover (Flow cytometry) Vpr G2/G1: Flag-Vpr transfected HeLa; for G2 arrest recover (Flow cytometry) Vpr G1% / G2 arrest recover (Flow cytometry) Vpr G2% / G2 arrest recover (Flow cytometry) Vpr G2/G1 / G2 arrest recover (Flow cytometry) ZsG G1% / G2 arrest recover (Flow cytometry) ZsG G2% / G2 arrest recover (Flow cytometry) ZsG G2/G1: 10 µM; for G2 arrest recover (Flow cytometry) ZsG G1% / G2 arrest recover (Flow cytometry) ZsG G2% / G2 arrest recover (Flow cytometry) ZsG G2/G1: control vector (ZsG) transfected HeLa
HIV-1 NF462 = assay: Inhibition assay of HIV replication in HIV-infected MDM (p24 ELISA); format: cell-based; settings: for inhibition of HIV-1 replication in MDM / inhibition at 10 µM: 10 µM; for inhibition of HIV-1 replication in MDM: two healthy donors 1 and 2, result in words; for inhibition at 10 µM: 8 days; for IC50: read-out: MDM IC50; for MDM SI: selective index, calculated as CC50/IC50 in MDM
[6] = Cell-based cytotoxicity analysis, WST-1 assay (HeLa cell); settings: human; for viability at 48 h, 10 µM: vs DMSO; for CC50: 50% cytotoxic concentration, HeLa cells, WST-1
[7] = Human immunodeficiency virus 1, MDM donor 1, p24 ELISA, read-out: HIV replication inhibition (%) Donor 1
[8] = Human immunodeficiency virus 1, MDM donor 2, p24 ELISA, read-out: HIV replication inhibition (%) Donor 2
[9] = Human immunodeficiency virus 1, HIV-1 NF462-infected MDM, donors 1 and 4, 8 days, p24 ELISA
[10] = average of n=1 and n=2, read-out: HeLa viability (%) AVERAGE
[11] = replicate 1, read-out: HeLa viability (%) viability n=1
[12] = replicate 2, read-out: HeLa viability (%) viability n=2

Compound | G2 arrest recover (CELAVIEW) cell count vs DMSO [1] | G2 arrest recover (CELAVIEW) recover rate vs DMSO(%) [1] [%] | expression level of Vpr in HeLa cells (Flag-Vpr in HeLa cells [2]) | CC50 at 48 h [3] [µM] | viability at 10 days, 10 µM [3] [%] | localization of Vpr in HeLa cells (Flag-Vpr in HeLa cells [4]) | recovery of the G2-arrest mediated by Vpr (flow cytometry) [5] | G2 arrest recover (Flow cytometry) Vpr G1% [5] [%] | G2 arrest recover (Flow cytometry) Vpr G2% [5] [%] | G2 arrest recover (Flow cytometry) Vpr G2/G1 [5] | G2 arrest recover (Flow cytometry) ZsG G1% [5] [%] | G2 arrest recover (Flow cytometry) ZsG G2% [5] [%] | G2 arrest recover (Flow cytometry) ZsG G2/G1 [5] | inhibition of HIV-1 replication in MDM (HIV-1 NF462) | inhibition at 10 µM (HIV-1 NF462; [7]) [%] | inhibition at 10 µM (HIV-1 NF462; [8]) [%] | MDM SI (HIV-1 NF462) | viability at 48 h, 10 µM [6, 10] [%] | viability at 48 h, 10 µM [6, 11] [%] | viability at 48 h, 10 µM [6, 12] [%] | also measured
COc1ccc2ccccc2c1C1C=C(c2ccccc2)NC(=S)N1 (stereo not shown) [VTD232, 4-(2-methoxy-1-naphthyl)-6-phenyl-3,4-dihydro-2(1H)-pyrimidinethione] | 95.1 | 49.2 | not affected | 30.5 ± 5 | 116 | not affected | recovered the G2-arrest mediated by Vpr | 29.06 | 39.99 | 1.376 | 49.39 | 11.48 | 0.2324 | potently inhibited HIV-1 replication | 99.1 | 82.2 | 7820 | 87.5 | 88 | 87 | direct binding to Vpr (SPR) (GST-tagged Vpr protein): did not directly bind to Vpr; Vpr Binding Kd (GST-tagged Vpr protein): Not binding; IC50 (HIV-1 NF462; [9]): 0.0039 ± 0.0046 µM; CC50 [6]: 57.1 ± 30.9 µM
COCCCNC(=O)C(=O)N/N=C/c1c(O)ccc2ccccc12 [VTD227, N-[(1E)-2-(2-hydroxynaphthyl)-1-azavinyl]-N′-(3-methoxypropyl)ethane-1,2-diamide] | 72.8 | 60.0 | not affected | 17.9 ± 5.3 | 82 | not affected | recovered the G2-arrest mediated by Vpr | 41.76 | 22.13 | 0.52 and 0.5299 | 44.2 | 25.62 | 0.57 and 0.5796 | potently inhibited HIV-1 replication | 99.5 | 103 | 22.9 | 89.2 | 84.2 | 94.2 | Kd (GST-tagged Vpr protein): 8.8 ± 0.48 µM; IC50 (HIV-1 NF462; [9]): 0.78 ± 0.59 µM; CC50 [6]: 99 ± 22 µM
CCOc1ccc(OCC(=O)Nc2cc(C)nn2-c2nc(C)c(CC)c(O)n2)cc1 [VTD263, 2-(4-ethoxyphenoxy)-N-[1-(5-ethyl-6-methyl-4-oxo(3-hydropyrimidin-2-yl))-3-methylpyrazol-5-yl]acetamide] | 81.6 | 95.5 | not affected | 38.8 ± 0.76 | 131 | not affected | recovered the G2-arrest mediated by Vpr | 45.86 | 23.17 | 0.5052 | 43.35 | 18.73 | 0.4321 | potently inhibited HIV-1 replication | 91.2 | 73.3 | 3.4 | 70.1 | 65.5 | 74.7 | direct binding to Vpr (SPR) (GST-tagged Vpr protein): did not directly bind to Vpr; Vpr Binding Kd (GST-tagged Vpr protein): Not binding; effect on HIV-1 replication at low concentration (HIV-1 NF462; 0.01 to 0.001 μM, MDM): tended to increase HIV-1 replication; IC50 (HIV-1 NF462; Human immunodeficiency virus 1, […]): 11.4 ± 4 µM; effect on HIV-1 virus release at high concentration (HIV-1 NF462; high concentration, MDM): decreased the HIV-1 virus release; CC50 [6]: > 100 µM
